Five compounds from patent US20230416330A1, “Optimized GIP Peptide Analogues” (Antag Therapeutics ApS, priority 2019, published 2023) can be followed below.

A word on the IC50: it is the midpoint of a concentration-inhibition curve.

Starred links: 1 amine or outer side, 2 acyl side, 3 side chain; linkers in the order of their positions; H or OH if unused. Non-standard residues stand in square brackets, D forms with d. Residues, ends and D or L forms follow the SMILES beside them. Groups on a side chain read outwards from the residue. *: point of attachment. C18 diacid = O=C(O)CCCCCCCCCCCCCCCCC(=O)*; C16 diacid = O=C(O)CCCCCCCCCCCCCCC(=O)*; γGlu = O=C(O)[C@H](CCC(=O)[*:2])N[*:1]; Glutaryl = O=C(CCCC(=O)[*:2])[*:1]; Nle = CCCC[C@H](N)C(=O)O; AEEA = NCCOCCOCC(=O)O; Aib = CC(C)(N)C(=O)O

The assay addresses T1, human GIP receptor (Homo sapiens, UniProt P48546).
T1 construct: host or cells: HEK-293 cells, transient transfection (Lipofectamine 2000), cDNA in pCMV-Script vector
T1 sequence (P48546 22-466): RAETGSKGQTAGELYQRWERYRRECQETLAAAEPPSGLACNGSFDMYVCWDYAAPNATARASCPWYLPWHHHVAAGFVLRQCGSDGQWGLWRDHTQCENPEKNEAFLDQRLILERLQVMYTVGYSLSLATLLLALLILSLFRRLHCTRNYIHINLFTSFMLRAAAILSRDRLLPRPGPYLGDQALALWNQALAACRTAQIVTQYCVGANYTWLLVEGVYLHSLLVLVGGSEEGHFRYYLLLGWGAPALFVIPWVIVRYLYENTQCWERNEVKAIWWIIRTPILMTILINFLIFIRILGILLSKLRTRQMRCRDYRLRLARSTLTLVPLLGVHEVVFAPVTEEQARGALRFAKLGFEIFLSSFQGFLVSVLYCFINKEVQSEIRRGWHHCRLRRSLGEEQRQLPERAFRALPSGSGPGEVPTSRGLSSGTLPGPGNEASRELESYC
In words: cAMP assay Alternative 1 (CisBio assay), GIPR antagonism. In kind it is cell-based. Conditions: for cAMP antagonism % inhib: Table 2B, % inhibition of Emax. The procedure:
HEK293 cells were cultured in 10% CO2 and 37° C. in Dulbecco's modified Eagle's medium supplemented with 10% fetal bovine serum, 2 mM glutamine, 180 units/ml penicillin, and 45 µg/ml streptomycin. Transient transfection with hGIPR for the CisBio assay from Table 2C was performed by using Lipofectamine 2000.
The in vitro functional activity of compounds towards human GIP receptor can also be determined in HEK-293 cells transiently expressing the receptor. On the day of the assay, cells were resuspended in HBSS buffer (Gibco, 14025-50) supplemented with […] (Gibco, 15630-106), 0.1% Pluronic F-68 (Gibco, 24040-032) and 0.1% casein (Sigma, C4765), and plated in 384-well plates at a density of 5000 cells/well. The GIP peptide analogues of the present disclosure were diluted in HBSS buffer supplemented with 20 mM HEPES, 0.1% pluronic, 0.1% casein and 500 uM IBMX. […] The resulting decrease in intracellular cAMP was quantitatively determined using the CisBio cAMP Dynamic 2 HTRF Assay Kit. The assay is based on a competition between native cAMP produced by cells and cAMP labeled with the dye d2 for binding to a cryptate labeled antibody. The specific signal (i.e. energy transfer signal) is inversely proportional to the concentration of cAMP in the sample.
The cAMP-d2 conjugate and the antibody anti-cAMP-Cryptate, both diluted in lysis buffer provided in the kit, were added to the cells according to the manufacturer's protocol. The resulting competitive assay was incubated for 60 minutes at room temperature, and the signal was detected by using a PerkinElmer Envision® instrument with excitation at 320 nm and emission at 665 nm and 620 nm. The HTRF ratio (emission at 665 nm/620 nm*10,000) is inversely proportional to the amount of cAMP present and is converted to nM cAMP per well using a cAMP standard curve. The dose-response curves were fitted using the non-linear regression analysis (four-logistic parameter equation) in GraphPad Prism, whereby pIC50 values were estimated. To test for agonistic properties at the GIP receptor, compounds were diluted and added to cells as described above and incubated for 30 min at 37° C. The resulting increase in intracellular cAMP was determined using the CisBio cAMP Dynamic 2 HTRF Assay Kit as described above.
The dose-response curves were fitted using the non-linear regression analysis (four-logistic parameter equation) in GraphPad Prism, whereby pIC50 values were estimated.
(Changes in cAMP serve as a functional read-out for many G protein-coupled receptors.)

Regarding `CCCC[C@H](NC(=O)[C@H](C)NC(=O)[C@@H](NC(=O)[C@H](CO)NC(=O)[C@H](Cc1ccc(O)cc1)NC(=O)[C@H](CC(=O)O)NC(=O)[C@H](CO)NC(=O)[C@@H](NC(=O)[C@H](Cc1ccccc1)NC(=O)[C@@H](NC(=O)CNC(=O)[C@@H](N)CCC(=O)O)[C@@H](C)O)[C@@H](C)CC)[C@@H](C)CC)C(=O)N[C@@H](CC(=O)O)C(=O)N[C@@H](CCCCN)C(=O)N[C@H](C(=O)N[C@@H](CCCCNC(=O)COCCOCCNC(=O)COCCOCCNC(=O)CC[C@H](NC(=O)CCCCCCCCCCCCCCCCC(=O)O)C(=O)O)C(=O)N[C@@H](CCC(N)=O)C(=O)N[C@@H](CCC(N)=O)C(=O)N[C@@H](CC(=O)O)C(=O)N[C@@H](Cc1ccccc1)C(=O)N[C@H](C(=O)N[C@@H](CCC(=O)O)C(=O)N[C@@H](Cc1c[nH]c2ccccc12)C(=O)N[C@@H](CC(C)C)C(=O)N[C@@H](CC(C)C)C(=O)N[C@@H](C)C(=O)N[C@@H](CCC(N)=O)C(=O)N[C@@H](CCCCN)C(=O)N1CCC[C@H]1C(=O)N[C@@H](CO)C(=O)N[C@@H](CO)C(=O)NCC(=O)N[C@@H](C)C(=O)N1CCC[C@H]1C(=O)N1CCC[C@H]1C(=O)N1CCC[C@H]1C(=O)N[C@@H](CO)C(=O)O)C(C)C)[C@@H](C)CC` [AT683] (H-EGTFISDYSIA[Nle]DKIK([AEEA-AEEA-γGlu-C18 diacid])QQDFVEWLLAQKPSSGAPPPS-OH; N-terminus assumed), the “cAMP antagonism % inhib” value is reported as 93%. Regarding `CC[C@H](C)[C@H](NC(=O)[C@H](CO)NC(=O)[C@H](Cc1ccc(O)cc1)NC(=O)[C@H](CC(=O)O)NC(=O)[C@H](CO)NC(=O)[C@@H](NC(=O)[C@H](Cc1ccccc1)NC(=O)[C@@H](NC(=O)CNC(=O)[C@@H](N)CCC(=O)O)[C@@H](C)O)[C@@H](C)CC)C(=O)N[C@@H](C)C(=O)N[C@@H](CCSC)C(=O)N[C@@H](CC(=O)O)C(=O)N[C@@H](CCCCN)C(=O)N[C@H](C(=O)N[C@@H](CCCCNC(=O)CCCCCCCCCCCCCCC(=O)O)C(=O)N[C@@H](CCC(N)=O)C(=O)N[C@@H](CCC(N)=O)C(=O)N[C@@H](CC(=O)O)C(=O)N[C@@H](Cc1ccccc1)C(=O)N[C@H](C(=O)N[C@@H](CCC(=O)O)C(=O)N[C@@H](Cc1c[nH]c2ccccc12)C(=O)N[C@@H](CC(C)C)C(=O)N[C@@H](CC(C)C)C(=O)N[C@@H](C)C(=O)N[C@@H](CCC(N)=O)C(=O)N[C@@H](CCCCN)C(=O)N1CCC[C@H]1C(=O)N[C@@H](CO)C(=O)N[C@@H](CO)C(=O)NCC(=O)N[C@@H](C)C(=O)N1CCC[C@H]1C(=O)N1CCC[C@H]1C(=O)N1CCC[C@H]1C(=O)N[C@@H](CO)C(=O)O)C(C)C)[C@@H](C)CC` [AT617] (H-EGTFISDYSIAMDKIK(C16 diacid)QQDFVEWLLAQKPSSGAPPPS-OH; N-terminus assumed), the midpoint of inhibition, the IC50, lay at 0.794 nM and the “cAMP antagonism % inhib” value was 91%. In the case of `CCCC[C@H](NC(=O)[C@H](C)NC(=O)[C@@H](NC(=O)[C@H](CO)NC(=O)[C@H](Cc1ccc(O)cc1)NC(=O)[C@H](CC(=O)O)NC(=O)[C@H](CO)NC(=O)[C@@H](NC(=O)[C@H](Cc1ccccc1)NC(=O)[C@@H](NC(=O)CNC(=O)CCCC(=O)O)[C@@H](C)O)[C@@H](C)CC)[C@@H](C)CC)C(=O)N[C@@H](CC(=O)O)C(=O)N[C@@H](CCCCN)C(=O)N[C@H](C(=O)N[C@@H](CCCCNC(=O)COCCOCCNC(=O)COCCOCCNC(=O)CC[C@H](NC(=O)CCCCCCCCCCCCCCCCC(=O)O)C(=O)O)C(=O)N[C@@H](CCC(N)=O)C(=O)N[C@@H](CCC(N)=O)C(=O)N[C@@H](CC(=O)O)C(=O)N[C@@H](Cc1ccccc1)C(=O)N[C@H](C(=O)N[C@@H](CCC(=O)O)C(=O)N[C@@H](Cc1c[nH]c2ccccc12)C(=O)N[C@@H](CC(C)C)C(=O)N[C@@H](CC(C)C)C(=O)N[C@@H](C)C(=O)N[C@@H](CCC(N)=O)C(=O)N[C@@H](CCCCN)C(=O)N1CCC[C@H]1C(=O)N[C@@H](CO)C(=O)N[C@@H](CO)C(=O)NCC(=O)N[C@@H](C)C(=O)N1CCC[C@H]1C(=O)N1CCC[C@H]1C(=O)N1CCC[C@H]1C(=O)N[C@@H](CO)C(=O)O)C(C)C)[C@@H](C)CC` [AT702] (Glutaryl-GTFISDYSIA[Nle]DKIK([AEEA-AEEA-γGlu-C18 diacid])QQDFVEWLLAQKPSSGAPPPS-OH), the “cAMP antagonism % inhib” value is 85%.

As to `CC[C@H](C)[C@H](NC(=O)[C@H](CO)NC(=O)[C@H](Cc1ccc(O)cc1)NC(=O)[C@H](CC(=O)O)NC(=O)[C@H](CO)NC(=O)[C@@H](NC(=O)[C@H](Cc1ccccc1)NC(=O)[C@@H](NC(=O)CNC(=O)[C@@H](N)CCC(=O)O)[C@@H](C)O)[C@@H](C)CC)C(=O)N[C@@H](C)C(=O)N[C@@H](CCSC)C(=O)N[C@@H](CC(=O)O)C(=O)N[C@@H](CCCCN)C(=O)N[C@H](C(=O)N[C@@H](CCCCNC(=O)CCCCCCCCCCCCCCC(=O)O)C(=O)N[C@@H](CCC(N)=O)C(=O)N[C@@H](CCC(N)=O)C(=O)N[C@@H](CC(=O)O)C(=O)N[C@@H](Cc1ccccc1)C(=O)N[C@H](C(=O)N[C@@H](CCC(=O)O)C(=O)N[C@@H](Cc1c[nH]c2ccccc12)C(=O)N[C@@H](CC(C)C)C(=O)N[C@@H](CC(C)C)C(=O)N[C@@H](C)C(=O)N[C@@H](CCC(N)=O)C(=O)N[C@@H](C)C(=O)N1CCC[C@H]1C(=O)N[C@@H](CO)C(=O)N[C@@H](CO)C(=O)NCC(=O)N[C@@H](C)C(=O)N1CCC[C@H]1C(=O)N1CCC[C@H]1C(=O)N1CCC[C@H]1C(=O)N[C@@H](CO)C(=O)O)C(C)C)[C@@H](C)CC` [AT623] (H-EGTFISDYSIAMDKIK(C16 diacid)QQDFVEWLLAQAPSSGAPPPS-OH; N-terminus assumed), the “cAMP antagonism % inhib” value is recorded as 98%. As to `CCCC[C@H](NC(=O)C(C)(C)NC(=O)[C@@H](NC(=O)[C@H](CO)NC(=O)[C@H](Cc1ccc(O)cc1)NC(=O)[C@H](CC(=O)O)NC(=O)[C@H](CO)NC(=O)[C@@H](NC(=O)[C@H](Cc1ccccc1)NC(=O)[C@@H](NC(=O)CNC(=O)[C@@H](N)CCC(=O)O)[C@@H](C)O)[C@@H](C)CC)[C@@H](C)CC)C(=O)N[C@@H](CC(=O)O)C(=O)N[C@@H](CCCCN)C(=O)N[C@H](C(=O)N[C@@H](CCCCNC(=O)COCCOCCNC(=O)COCCOCCNC(=O)CC[C@H](NC(=O)CCCCCCCCCCCCCCCCC(=O)O)C(=O)O)C(=O)N[C@@H](CCC(N)=O)C(=O)N[C@@H](CCC(N)=O)C(=O)N[C@@H](CC(=O)O)C(=O)N[C@@H](Cc1ccccc1)C(=O)N[C@H](C(=O)N[C@@H](CCC(=O)O)C(=O)N[C@@H](Cc1c[nH]c2ccccc12)C(=O)N[C@@H](CC(C)C)C(=O)N[C@@H](CC(C)C)C(=O)N[C@@H](C)C(=O)N[C@@H](CCC(N)=O)C(=O)N[C@@H](CCCCN)C(=O)N1CCC[C@H]1C(=O)N[C@@H](CO)C(=O)N[C@@H](CO)C(=O)NCC(=O)N[C@@H](C)C(=O)N1CCC[C@H]1C(=O)N1CCC[C@H]1C(=O)N1CCC[C@H]1C(=O)N[C@@H](CO)C(=O)O)C(C)C)[C@@H](C)CC` [AT686] (H-EGTFISDYSI[Aib][Nle]DKIK([AEEA-AEEA-γGlu-C18 diacid])QQDFVEWLLAQKPSSGAPPPS-OH; N-terminus assumed), the “cAMP antagonism % inhib” value is 82%.
